Laboratory results published in patent publication US5998435A, “Use of a tachykinin antagonist for the manufacture of a medicament for the treatment of emesis” (priority 1998, dated 1999).

Experiments:
cisplatin-induced emesis [1] = conditions: cisplatin 5 mg/kg i.p.
NK1 receptor [2] = target: T1, NK1 receptor (Meriones unguiculatus, UniProt Q5DUB1); conditions: administered systemically 30 minutes before [Sar9,Met(O2)11]-substance P; cited from earlier work
T1 construct: centrally NK1 receptor mediated foot-tapping response was examined in the gerbil; from tissue; host or cells: whole animal (gerbil), central NK1 receptors, i.c.v. agonist
T1 sequence (Q5DUB1 whole entry): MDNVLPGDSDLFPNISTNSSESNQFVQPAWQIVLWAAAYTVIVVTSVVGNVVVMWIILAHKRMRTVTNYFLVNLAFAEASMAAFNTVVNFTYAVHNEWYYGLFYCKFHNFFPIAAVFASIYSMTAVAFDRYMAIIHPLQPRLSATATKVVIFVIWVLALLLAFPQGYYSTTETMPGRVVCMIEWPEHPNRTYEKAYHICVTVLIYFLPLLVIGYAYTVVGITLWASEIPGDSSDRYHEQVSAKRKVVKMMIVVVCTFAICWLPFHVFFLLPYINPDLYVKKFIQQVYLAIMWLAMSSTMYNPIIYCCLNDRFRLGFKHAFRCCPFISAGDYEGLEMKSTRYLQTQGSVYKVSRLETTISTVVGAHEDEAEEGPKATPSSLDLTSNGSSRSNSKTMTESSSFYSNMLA

NK1 receptor [3] = target: T1, NK1 receptor; test: [Sar9,Met(O2)11]substance P-induced hind foot tapping in the gerbil; type: in vivo
Protocol: FIG. 3. […] The duration of foot tapping (sec) was recorded for 5 minutes immediately following recovery of the animals righting reflex.
Gerbils were anaesthetized with isoflurane, and an incision was made to expose the skull. […] Animals were placed individually into observation boxes, and duration of hind foot tapping was recorded for 5 minutes immediately following recovery of the animals' righting reflex.

cisplatin-induced emesis [4] = test: Cisplatin-induced acute emesis in the ferret; type: in vivo; conditions: ferret
Excerpt: Adult male albino Fitch ferrets (>1 kg weight) were individually housed with free access to food (SDS Diet "C", Special Diet Services Ltd, Essex, U.K.). Thirty minutes prior to the commencement of the studies, the ferrets were presented with 100 g of commercially available tinned cat food.

[5] = The Compound 10 mg/kg or ondansetron 1 mg/kg i.p. three times a day

## Cc1nccn1CC1CCc2c(c3ccccc3n2C)C1=O (stereo not shown) [ondansetron]
cisplatin-induced emesis [1]; [5]
  delayed emesis during the 3 days (3-72 hours): much lower activity
  retching and vomiting during the first 3 hours of the emetic response (acute): completely blocked
cisplatin-induced emesis [1]; ondansetron 1 mg/kg i.p. tid
  effect during the start of the delayed response (Day 1, 3-24 hours): failed to show any effect

## COc1ccccc1CN[C@H]1CCCN[C@H]1c1ccccc1 [CP-99,994]
NK1 receptor [2]
  inhibition of the foot-tapping response: dose-dependentlyinhibit

## CN(C)CC(=O)OCC(NC(=O)C(C)(Cc1c[nH]c2ccccc12)NC(=O)OCc1cc2ccccc2o1)c1ccccc1 (stereo not shown) [Compound 2, Dimethylamino-acetic acid 2-[2-(benzofuran-2-ylmethoxycarbonylamino)-3-(1H-indol-3-yl)-2-methyl-propionylamino]-2-phenyl-ethyl ester]
NK1 receptor [3]; 1-100 mg/kg s.c.
  block of the foot-tapping response, s.c.: failed to block
NK1 receptor [3]; i.c.v. administration
  MED, antagonism of foot-tapping response, i.c.v.: 10 μg/animal
cisplatin-induced emesis [4]
  block of cisplatin-induced emesis: inability
